From patent US9751869B2, “LXR modulators” (BRISTOL-MYERS SQUIBB COMPANY, priority 2013, dated 2017)

Target: T1, LXRβ (Homo sapiens, UniProt P55055)
T1 construct: Co-transfection expression plasmids, comprising full-length LXRα (pCMX-h LXRα or LXRβ (pCMX-hLXRβ)); expressed in transfected cells; host or cells: CV-1 African green monkey kidney cells, transient transfection with pCMX-hLXRβ
T1 sequence (P55055 1-460): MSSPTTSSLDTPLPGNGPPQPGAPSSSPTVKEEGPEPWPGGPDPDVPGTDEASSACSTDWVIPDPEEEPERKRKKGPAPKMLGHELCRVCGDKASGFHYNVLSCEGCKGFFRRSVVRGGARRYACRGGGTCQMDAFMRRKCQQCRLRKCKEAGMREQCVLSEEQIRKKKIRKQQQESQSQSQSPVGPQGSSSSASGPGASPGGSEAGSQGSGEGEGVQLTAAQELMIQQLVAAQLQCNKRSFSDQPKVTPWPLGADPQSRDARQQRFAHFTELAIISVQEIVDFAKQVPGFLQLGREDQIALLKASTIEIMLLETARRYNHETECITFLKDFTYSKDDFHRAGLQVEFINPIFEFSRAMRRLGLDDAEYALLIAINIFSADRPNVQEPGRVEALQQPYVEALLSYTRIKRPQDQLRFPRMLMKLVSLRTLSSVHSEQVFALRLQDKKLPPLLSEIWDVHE
T1 sequence (P19793 1-462 partner): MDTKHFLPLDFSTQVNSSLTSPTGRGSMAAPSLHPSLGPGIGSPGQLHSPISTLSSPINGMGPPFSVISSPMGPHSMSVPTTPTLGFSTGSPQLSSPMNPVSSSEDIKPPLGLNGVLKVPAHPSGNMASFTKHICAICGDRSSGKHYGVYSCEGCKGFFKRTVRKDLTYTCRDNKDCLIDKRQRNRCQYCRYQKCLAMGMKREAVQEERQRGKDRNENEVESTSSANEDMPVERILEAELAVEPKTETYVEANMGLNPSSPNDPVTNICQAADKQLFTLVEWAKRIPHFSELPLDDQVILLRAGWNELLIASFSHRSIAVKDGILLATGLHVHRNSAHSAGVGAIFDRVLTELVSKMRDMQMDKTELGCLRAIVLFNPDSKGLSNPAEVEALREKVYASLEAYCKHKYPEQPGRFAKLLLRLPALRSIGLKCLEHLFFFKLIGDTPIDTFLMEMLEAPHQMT
Test: LXR/LXRE co-transfection assay (luciferase reporter) in CV-1 cells, LXRβ
Format: cell-based
Conditions: for EC50: CV-1 cells transfected with pCMX-hLXRβ and LXREx1-Tk-Luciferase, 20 hours incubation, read-out: LXRbeta agonism EC50; for Emax: read-out: LXRbeta % EFFICACY
Summary of the method: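 CV-1 cells transiently co-transfected with full-length human LXRβ, LXRE-Tk-luciferase reporter and β-galactosidase control, then exposed to compound (≤0.5% DMSO) for 20 h at 37 °C before luminescence read. EC50 from 10-point, half-log dose curves; efficacy relative to the sulfonamide high control, means of 2–3 experiments.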

[1] = CV-1 cells, relative to maximum response of high control N-(3-((4-fluorophenyl)-(naphthalene-2-sulfonyl)amino)propyl)-2,2-dimethylpropionamide

Cc1nc(-c2ccc3c(c2)OC(F)(F)O3)c(-c2cc(-c3cc(F)c(CO)c(S(C)(=O)=O)c3)ccc2-c2cc(CC(N)=O)nn2C)o1 [Example 61, 2-(5-(3-(4-(2,2-difluorobenzo[d][1,3]dioxol-5-yl)-2-methyloxazol-5-yl)-3′-fluoro-4′-(hydroxymethyl)-5′-(methylsulfonyl)-[1,1′-biphenyl]-4-yl)-1-methyl-1H-pyrazol-3-yl)acetamide]
EC50: 592 nM
Emax [1]: 40%

Cc1nc(-c2cc(-c3cc(F)c(CO)c(S(C)(=O)=O)c3)ccc2-c2cc(C(C)(C)CO)nn2C)c(-c2ccc3c(c2)OC(F)(F)O3)o1 [Example 62, 2-(5-(3-(5-(2,2-difluorobenzo[d][1,3]dioxol-5-yl)-2-methyloxazol-4-yl)-3′-fluoro-4′-(hydroxymethyl)-5′-(methylsulfonyl)biphenyl-4-yl)-1-methyl-1H-pyrazol-3-yl)-2-methylpropan-1-ol]
EC50: 30 nM
Emax [1]: 72%

Cc1nc(-c2cc(-c3cc(F)c(CO)c(S(C)(=O)=O)c3)ccc2-c2cc(C(C)(C)C(N)=O)nn2C)c(-c2ccc3c(c2)OC(F)(F)O3)o1 [Example 63, 2-(5-(3-(5-(2,2-difluorobenzo[d][1,3]dioxol-5-yl)-2-methyloxazol-4-yl)-3′-fluoro-4′-(hydroxymethyl)-5′-(methylsulfonyl)biphenyl-4-yl)-1-methyl-1H-pyrazol-3-yl)-2-methylpropanamide]
EC50: 55 nM
Emax [1]: 33%

Cc1nc(-c2cc(-c3cc(F)c(CO)c(S(C)(=O)=O)c3)ccc2-c2cc(C(C)(C)C(C)(C)O)nn2C)c(-c2ccc3c(c2)OC(F)(F)O3)o1 [Example 64, 3-(5-(3-(5-(2,2-difluorobenzo[d][1,3]dioxol-5-yl)-2-methyloxazol-4-yl)-3′-fluoro-4′-(hydroxymethyl)-5′-(methylsulfonyl)biphenyl-4-yl)-1-methyl-1H-pyrazol-3-yl)-2,3-dimethylbutan-2-ol]
EC50: 24 nM
Emax [1]: 42%

Cc1nc(-c2ccc3c(c2)OC(F)(F)O3)c(-c2cc(-c3cc(F)c(CO)c(S(C)(=O)=O)c3)ccc2-c2cc(C(C)(C)C(N)=O)nn2C)o1 [Example 65, 2-(5-(3-(4-(2,2-difluorobenzo[d][1,3]dioxol-5-yl)-2-methyloxazol-5-yl)-3′-fluoro-4′-(hydroxymethyl)-5′-(methylsulfonyl)biphenyl-4-yl)-1-methyl-1H-pyrazol-3-yl)-2-methylpropanamide]
EC50: 67 nM
Emax [1]: 55%

Cc1nc(-c2ccc3c(c2)OC(F)(F)O3)c(-c2cc(-c3cc(F)c(CO)c(S(C)(=O)=O)c3)ccc2-c2cc(C(C)(C)C(C)(C)O)nn2C)o1 [Example 66, 3-(5-(3-(4-(2,2-difluorobenzo[d][1,3]dioxol-5-yl)-2-methyloxazol-5-yl)-3′-fluoro-4′-(hydroxymethyl)-5′-(methylsulfonyl)biphenyl-4-yl)-1-methyl-1H-pyrazol-3-yl)-2,3-dimethylbutan-2-ol]
EC50: 27 nM
Emax [1]: 27%

Cc1nc(-c2ccc3c(c2)OC(F)(F)O3)c(-c2cc(-c3cc(F)c(CO)c(S(C)(=O)=O)c3)ccc2-c2cc(C(C)(C)C#N)nn2C)o1 [Example 67, 2-(5-(3-(4-(2,2-difluorobenzo[d][1,3]dioxol-5-yl)-2-methyloxazol-5-yl)-3′-fluoro-4′-(hydroxymethyl)-5′-(methylsulfonyl)biphenyl-4-yl)-1-methyl-1H-pyrazol-3-yl)-2-methylpropanenitrile]
EC50: 24 nM
LXRbeta % EFFICACY [1]: 79%

Cc1nc(-c2ccc3c(c2)OC(F)(F)O3)c(-c2cc(-c3cc(F)c(CO)c(S(C)(=O)=O)c3)ccc2-c2cc(C(C)(C)c3nnco3)nn2C)o1 [Example 68, (4′-(3-(2-(1,3,4-oxadiazol-2-yl)propan-2-yl)-1-methyl-1H-pyrazol-5-yl)-3′-(4-(2,2-difluorobenzo[d][1,3]dioxol-5-yl)-2-methyloxazol-5-yl)-3-fluoro-5-(methylsulfonyl)biphenyl-4-yl)methanol]
EC50: 29 nM
Emax [1]: 51%

Cc1nc(-c2ccc3c(c2)OC(F)(F)O3)c(-c2cc(-c3cc(F)c(CO)c(S(C)(=O)=O)c3)ccc2-c2cc(CS(=O)(=O)N(C)C)nn2C)o1 [Example 69, 1-(5-(3-(4-(2,2-difluorobenzo[d][1,3]dioxol-5-yl)-2-methyloxazol-5-yl)-3′-fluoro-4′-(hydroxymethyl)-5′-(methylsulfonyl)-[1,1′-biphenyl]-4-yl)-1-methyl-1H-pyrazol-3-yl)-N,N-dimethylmethanesulfonamide]
EC50: 160 nM
Emax [1]: 24%

Cc1nc(-c2ccc(OC(F)(F)F)cc2)c(-c2cc(-c3cc(F)c(CO)c(S(C)(=O)=O)c3)ccc2-c2cc(C(F)(F)C(N)=O)nn2C)o1 [Example 70, 2,2-difluoro-2-(5-(3′-fluoro-4′-(hydroxymethyl)-3-(2-methyl-4-(4-(trifluoromethoxy)phenyl)oxazol-5-yl)-5′-(methylsulfonyl)biphenyl-4-yl)-1-methyl-1H-pyrazol-3-yl)acetamide]
EC50: 317 nM
Emax [1]: 42%

Cc1nc(-c2ccc(OC(F)F)c(F)c2)c(-c2cc(-c3cc(F)c(CO)c(S(C)(=O)=O)c3)ccc2-c2cc(C(F)(F)C(N)=O)nn2C)o1 [Example 71, 2-(5-(3-(4-(4-(difluoromethoxy)-3-fluorophenyl)-2-methyloxazol-5-yl)-fluoro-4′-(hydroxymethyl)-5′-(methylsulfonyl)biphenyl-4-yl)-1-methyl-1H-pyrazol-3-yl)-2,2-difluoroacetamide]
EC50: 47 nM
Emax [1]: 52%

Cc1nc(-c2ccc(OC(F)F)c(F)c2)c(-c2cc(-c3cccc(S(C)(=O)=O)c3)ccc2-c2cc(C(F)(F)C(N)=O)nn2C)o1 [Example 72, 2-(5-(3-(4-(4-(difluoromethoxy)-3-fluorophenyl)-2-methyloxazol-5-yl)-3′-(methylsulfonyl)biphenyl-4-yl)-1-methyl-1H-pyrazol-3-yl)-2,2-difluoroacetamide]
EC50: 73 nM
Emax [1]: 60%

Cc1nc(-c2ccc3c(c2)OC(F)(F)O3)c(-c2cc(-c3cccc(S(C)(=O)=O)c3)ccc2-c2cc(C(F)(F)C(N)=O)nn2C)o1 [Example 73, 2-(5-(3-(4-(2,2-difluorobenzo[d][1,3]dioxol-5-yl)-2-methyloxazol-5-yl)-3′-(methylsulfonyl)biphenyl-4-yl)-1-methyl-1H-pyrazol-3-yl)-2,2-difluoroacetamide]
EC50: 42 nM
Emax [1]: 55%

Cc1nc(-c2ccc3c(c2)OC(F)(F)O3)c(-c2cc(-c3cc(F)c(CO)c(S(C)(=O)=O)c3)ccc2-c2cc(C(F)(F)C(N)=O)nn2C)o1 [Example 74, 2-(5-(3-(4-(2,2-difluorobenzo[d][1,3]dioxol-5-yl)-2-methyloxazol-5-yl)-3′-fluoro-4′-(hydroxymethyl)-5′-(methylsulfonyl)biphenyl-4-yl)-1-methyl-1H-pyrazol-3-yl)-2,2-difluoroacetamide]
EC50: 92 nM
Emax [1]: 60%

Cc1nc(-c2ccc3c(c2)OC(F)(F)O3)c(-c2cc(-c3cc(F)c(CO)c(S(C)(=O)=O)c3)ccc2-c2cc(C(F)(F)C(=O)O)nn2C)o1 [Example 75, 2-(5-(3-(4-(2,2-difluorobenzo[d][1,3]dioxol-5-yl)-2-methyloxazol-5-yl)-3′-fluoro-4′-(hydroxymethyl)-5′-(methylsulfonyl)biphenyl-4-yl)-1-methyl-1H-pyrazol-3-yl)-2,2-difluoroacetic acid]
EC50: 7670 nM
Emax [1]: 52%
